Laboratory results as given in PubChem BioAssay AID1996.
Converted amounts (≈) assume the structure as drawn.

Conditions: buffer; pH 7.4; 200.0 µM

| SMILES | solubility kinetic [mg/mL] |
| --- | --- |
| O=C([O-])c1cc(-c2cccnc2)nc2ccccc12.[K+] | 0.0087 |
| NS(=O)(=O)c1ccc(CNC(=O)Cc2ccsc2)cc1 | > 0.0466 |
| CCCOC(=O)C1=C(C)N(C)C(=O)NC1c1cc2c(cc1[N+](=O)[O-])OCO2 (stereo not drawn) | 0.0494 (≈ 131 µM) |
| COc1ccc(/C=C2\SC(N)=NC2=O)cc1Br | 0.0053 (≈ 16.9 µM) |
| CC1CCCCN1C(=S)NC(=O)c1ccco1 (stereo not drawn) | > 0.0378 |
| COc1ccc(CCC(=O)NC(C)C2CCCO2)cc1 (stereo not drawn) | > 0.0416 |
| Cc1ccc(S(=O)(=O)N2CCC[C@H]2C(=O)Nc2ccccc2Cl)cc1 | 0.0174 (≈ 45.9 µM) |
| CC(C)Nc1nc(-c2cccnc2)nc(-c2ccccc2)c1C#N | < 0.0001 |
| O=[N+]([O-])c1cccc(P(=O)(O)c2cccc([N+](=O)[O-])c2)c1 | > 0.0462 |
| COc1ccc(CNc2ncnc3sccc23)cc1OC | 0.0202 (≈ 67 µM) |
| Cc1cc(NC(=O)COc2ccc([N+](=O)[O-])cc2)no1 | 0.0058 (≈ 20.9 µM) |
| Cc1ccc(S(=O)(=O)N2CCN(C(=O)COC(=O)CNC(=O)c3ccc(C(C)(C)C)cc3)CC2)c(C)c1 | 0.0165 (≈ 31.2 µM) |
| Cc1nc([N+](=O)[O-])cn1CC(=O)c1ccc(Cl)cc1 | 0.0037 (≈ 13.2 µM) |
| O=C(CSc1nccc(=O)[nH]1)NC1CCCCCC1 | > 0.0422 |
| Cc1cc(N2CCN(C)CC2)nc2ccccc12 | 0.0329 (≈ 136 µM) |
| CCN(C(=O)COC(=O)CCc1ccccc1)c1ccccc1 | 0.0443 (≈ 142 µM) |
| O=C(N/N=C/c1cccnc1)c1cccs1 | > 0.0347 |
| Cc1cc(Cl)ccc1Oc1ncnc2onc(C)c12 | 0.0019 (≈ 6.89 µM) |
| Cc1ccc(NC(=O)CCn2c(=O)[nH]c3ccsc3c2=O)cc1 | 0.0082 (≈ 24.9 µM) |
| CC(=O)Nc1ccc(NC(=O)N(c2ccccc2)c2ccccc2)cc1 | 0.0064 (≈ 18.5 µM) |
| O=C(COC(=O)c1cc(S(=O)(=O)N2CCOCC2)ccc1O)Nc1ccc2c(c1)OCO2 | > 0.0697 |
| CNc1nc(N)c([N+](=O)[O-])c(Nc2ccccc2OC)n1 | 0.0007 (≈ 2.41 µM) |
| CC(=O)N1CCN(Cc2ccc(Cl)nc2)CC1 | > 0.0381 |
| CCCCn1c(O)c(/C=C2/C=CC=N2)c(=O)[nH]c1=O | 0.0051 (≈ 19.5 µM) |

| SMILES | solubility kinetic [mg/mL] |
| --- | --- |
| O=C(NCCc1csc(-c2cccc(F)c2)n1)c1ccco1 | > 0.0475 |
| COCC(=O)Nc1cc(C)cn(Cc2ccccc2Cl)c1=O | 0.0414 (≈ 129 µM) |
| COc1ccc(NC(=O)C2CC(c3c(F)cccc3Cl)=NO2)cc1 (stereo not drawn) | 0.0408 (≈ 117 µM) |
| Cc1ccsc1C(=O)OCC(=O)N1C(C)CCCC1C (stereo not drawn) | > 0.0443 |
| Cc1cc(C)nc(SCc2cn3c(C)cccc3n2)n1 | 0.0379 (≈ 133 µM) |
| COc1ccc(CN(C)CC(=O)NC(C)c2ccccc2)cc1OC (stereo not drawn) | > 0.0514 |
| COc1ccccc1OC(C)C(=O)N1CCC(Cc2ccccc2)CC1 (stereo not drawn) | 0.0509 (≈ 144 µM) |
| CC(=O)NC(=S)Nc1ccccc1F | > 0.0318 |
| COc1ccc(Nc2nc(NCc3ccco3)nc(N)c2[N+](=O)[O-])cc1 | 0.0002 (≈ 0.561 µM) |
| CCOc1cc(C2C(C#N)=C(N)Oc3cc(N)ccc32)ccc1O (stereo not drawn) | 0.0335 (≈ 104 µM) |
| CC(C)(C)C1CCC(=NNC(=O)C(=O)NCc2cccnc2)CC1 (stereo not drawn) | > 0.0496 |
| CC(C)NC(=O)Cn1cc(C(=O)c2ccccc2)c2ccccc21 | 0.0017 (≈ 5.31 µM) |
| Cc1ccc(N2C(=S)NC3c4ccccc4OC2(C)C3C(=O)N(C)C)cc1 (stereo not drawn) | 0.0509 (≈ 133 µM) |
| O=C(CS(=O)CC(=O)Nc1cccnc1)Nc1ccc(F)cc1 (stereo not drawn) | > 0.0503 |
| Cc1ccc(NC(=O)N[C@@H](CC(C)C)C(=O)O)c(C)c1 | > 0.0418 |
| O=C(c1ccccc1[N+](=O)[O-])N1CCCC(C(=O)N2CCCCCC2)C1 (stereo not drawn) | 0.053 (≈ 147 µM) |
| CCO/C(C)=C1/SC(=S)NC1=O | > 0.0305 |
| Cc1cc(C)cc(N=C2NC(=O)CS2)c1 | > 0.033 |
| COc1cccc(NC(=O)CN(C)C(=O)CC(C)c2ccccc2)c1 (stereo not drawn) | 0.04 (≈ 118 µM) |
| NC(=O)COC(=O)c1sc2cc(F)ccc2c1Cl | 0.0063 (≈ 21.9 µM) |
| COc1ccc(S(=O)(=O)Nc2cc(Sc3ncn[nH]3)c(O)cc2C)cc1 | > 0.0589 |
| COc1ccc(C(=O)OCc2c(C)noc2C)cc1 | > 0.0392 |
| Cc1cccnc1NC(=O)c1ccc(C(=O)c2ccccc2)cc1 | 0.0425 (≈ 134 µM) |
| O=C(Cn1c(=O)sc2ccccc21)Nc1ccc(O)cc1 | > 0.045 |

| SMILES | solubility kinetic [mg/mL] |
| --- | --- |
| CN1C(=O)/C(=C\c2cccc(OCc3ccccc3)c2)SC1=S | < 0.0007 |
| CCCS(=O)(=O)N1CCCC(C(=O)Oc2ccc(OC)cc2)C1 (stereo not drawn) | 0.0405 (≈ 119 µM) |
| CCC1(CC)Nc2ccccc2C(=O)N1c1ccc(OC)cc1 | 0.0165 (≈ 53.2 µM) |
| Cc1nc2ccc(NC(=S)NC3CCCCC3)cc2nc1C | > 0.0472 |
| O/N=C/c1cc(Br)cs1 | 0.0169 (≈ 82 µM) |
| COc1ccc2c(c1OC)C(=O)N(c1ccc(O)cc1)C2 | 0.0063 (≈ 22.1 µM) |
| Cc1[nH]c2c(C)cccc2c1CC(=O)O | > 0.0305 |
| CCC(=O)Nc1cc(-c2nc3ncccc3o2)ccc1Cl | 0.0138 (≈ 45.7 µM) |
| CCSc1nc2sc3c(c2c(=O)n1-c1ccccc1C)CCN(C)C3 | 0.0537 (≈ 145 µM) |
| O=C(NCC(c1cccs1)N1CCOCC1)c1cccnc1 (stereo not drawn) | 0.0436 (≈ 137 µM) |
| CN(c1ccccc1)c1nc(N)c([N+](=O)[O-])c(N2CCCCC2)n1 | 0.013 (≈ 39.6 µM) |
| Cc1cccc(NC(=O)c2ccc3nccnc3c2)c1C | 0.0371 (≈ 134 µM) |
| CC(CCc1ccccc1)NC(=O)c1ccccc1F (stereo not drawn) | 0.0344 (≈ 127 µM) |
| Cc1ccccc1CN1C(=O)c2ccccc2S1(=O)=O | 0.0025 (≈ 8.7 µM) |
| CCOC(=O)C(C(=O)N(C)Cc1ccccc1)C1CCCCC1 (stereo not drawn) | 0.0418 (≈ 132 µM) |
| CC(C)c1ccc(NC(=O)N2C[C@H]3C[C@@H](C2)c2cccc(=O)n2C3)cc1 | > 0.0527 |
| Cc1ccc(-c2nc(CNC(=O)c3ccco3)cs2)cc1 | 0.042 (≈ 141 µM) |
| O=[N+]([O-])c1ccc(Sc2cc[n+]([O-])c3ccccc23)c([N+](=O)[O-])c1 | 0.0046 (≈ 13.4 µM) |
| Cc1cc(SCC(=O)c2cccc([N+](=O)[O-])c2)nc(=O)[nH]1 | 0.0243 (≈ 79.6 µM) |
| COc1ccc(CNc2ncnc3cc(OC)c(OC)cc23)cc1OC | > 0.0533 |
| CCN(CC(=O)Nc1cc(Cl)cc(Cl)c1)CC(=O)NC1CCS(=O)(=O)C1 (stereo not drawn) | 0.0523 (≈ 124 µM) |
| N/C(=N\C(=S)Nc1ccccc1)c1ccccc1 | > 0.0383 |
| COc1ccc(Cc2nnc(NCCO)[nH]c2=O)cc1 | > 0.0414 |
| Cc1cccc(C(=O)Nc2cccnc2Cl)c1 | > 0.037 |

| SMILES | solubility kinetic [mg/mL] |
| --- | --- |
| CCn1c(C)nc2cc(N)ccc21.Cl | 0.0343 |
| O=Cc1ccnc(-c2ccc(OC(=O)c3ccco3)cc2)n1 | 0.0331 (≈ 113 µM) |
| CC(=O)Nc1ccc(C(=O)OCC(=O)Nc2ccc(S(=O)(=O)N3CCOCC3)cc2)cc1 | > 0.0692 |
| CN(CC(=O)OCC(=O)NC1CCCC1)S(=O)(=O)c1ccc(Cl)cc1 | > 0.0583 |
| Cl.N=C(c1ccc([N+](=O)[O-])cc1)N1CCCCCC1 | > 0.0426 |
| Cc1ccc(O)c(NC(=O)c2ccccc2-c2ccccc2C(=O)O)c1 | > 0.0521 |
| Cc1cc(C)cc(OCc2ccc(C(=O)NC3CCOC3=O)o2)c1 (stereo not drawn) | > 0.0494 |
| CN(Cc1ccccc1)S(=O)(=O)c1cn(C)cn1 | > 0.0398 |
| Cc1cc(OC(=O)c2ccc(C(C)(C)C)cc2)c([N+](=O)[O-])c(=O)[nH]1 | 0.0464 (≈ 140 µM) |
| O=C(CC1CCOCC1)Nc1ccc(Cl)c(Cl)c1 | > 0.0432 |
| O=C(COc1ccc(F)cc1)N1CCCc2ccccc21 | 0.0336 (≈ 118 µM) |
| CC(C)NCC(O)COc1cccc2ccccc12.Cl (stereo not drawn) | > 0.0444 |
| COc1ccc(NC(=O)c2ccc(-c3ccc([N+](=O)[O-])cc3)o2)cc1 | 0.0012 (≈ 3.55 µM) |
| CCCn1c(C(O)c2cc(OC)c(OC)c(OC)c2)nc2ccccc21 (stereo not drawn) | 0.0493 (≈ 138 µM) |
| CCCCNc1ccc2c3c(cccc13)C(=O)N(CCCC)C2=O | 0.0021 (≈ 6.47 µM) |
| CC(=O)Nc1ccc(NC(=O)Nc2cccc(Cl)c2)cc1 | 0.0014 (≈ 4.61 µM) |
| Cc1csc(SCC(=O)Nc2ccccc2)n1 | 0.0355 (≈ 134 µM) |
| COc1cc2c(cc1OC)CN(CC(=O)Nc1ccc(F)cc1F)CC2 | 0.044 (≈ 121 µM) |
| O=c1[nH]c(=S)n(C2CCCCC2)c(O)c1C=NCCN1CCOCC1 | 0.053 (≈ 145 µM) |
| Cc1cc(Cl)ccc1OCC(=O)Nc1ccncc1 | > 0.0415 |
| COc1ccc(-c2[nH]ncc2CNC(C)Cc2cccc(C)n2)cc1F (stereo not drawn) | > 0.0532 |
| O=C1CC(Sc2ccc(Cl)cc2)C(=O)N1Cc1ccncc1 (stereo not drawn) | 0.0189 (≈ 56.8 µM) |
| CN(Cc1c(F)cccc1Cl)C(=O)C1=CC=CN2CCS(=O)(=O)N=C12 | > 0.0576 |
| COc1cccc(NC2=NCCCCC2)c1 | > 0.0327 |

| SMILES | solubility kinetic [mg/mL] |
| --- | --- |
| c1ccc2[nH]c(-c3ccncc3)nc2c1 | > 0.0293 |
| CCCCCCn1cc(C(=O)OCC)c(=O)c2cc(F)c(F)cc21 | 0.0436 (≈ 129 µM) |
| C=CCc1cccc(CNc2nc3ccccc3n2C)c1O | 0.0003 (≈ 1.02 µM) |
| CCOc1ccccc1NC(=O)Cc1cccs1 | 0.0336 (≈ 129 µM) |
| N#Cc1ccccc1NC(=O)CN1CCN(Cc2ccccc2)CC1 | > 0.0502 |
| CCC(C(=O)OCCOCCN(CC)CC)c1ccccc1 (stereo not drawn) | 0.0411 (≈ 134 µM) |
| O=C1CC(N2CCSCC2)C(=O)N1c1ccc(Br)cc1 (stereo not drawn) | > 0.0533 |
| CSc1nc2c(c(=O)[nH]c(=O)n2C)n1Cc1ccc(Cl)cc1 | 0.0012 (≈ 3.56 µM) |
| CCN(CC(=O)NCc1cccs1)CC(=O)Nc1ccc(C(N)=O)cc1 | > 0.0562 |
| Cc1cc(CNC(=O)c2ccc(C)c([N+](=O)[O-])c2)c2ccccc2n1 | 0.0201 (≈ 59.9 µM) |
| O=C(NC1CCCC1)C1CCN(C(=O)c2cccc(Cl)c2)CC1 | > 0.0502 |
| CC(c1ccccc1)C1CC(=O)N(c2ccccc2)C1=O (stereo not drawn) | 0.0411 (≈ 147 µM) |
| CC1CCN(c2ccc(C(F)(F)F)cc2N)CC1 | < 0.0003 |
| Cc1cc(=O)c2ccc(C(F)(F)F)cc2[nH]1 | > 0.0341 |
| CC(=O)c1c(C)[nH]c(C(=O)Nc2nc(C)cs2)c1C | 0.0041 (≈ 14.8 µM) |
| CCOC(=O)C1=C(C)OC(N)=C(C#N)C1c1cccc(C)c1 (stereo not drawn) | 0.0437 (≈ 146 µM) |
| CC(C)CN(CC(C)C)C(=O)COc1ccccc1C(N)=O | > 0.046 |
| O=C(c1ccc(Cl)cc1)N(c1ccccn1)C1CCCCC1 | 0.0415 (≈ 132 µM) |
| O=C(COc1cccc(C(F)(F)F)c1)NCC(c1ccco1)N1CCCC1 (stereo not drawn) | 0.0451 (≈ 118 µM) |
| COc1cccc(CN(C)C(=O)C23CC4CC(CC(C4)C2)C3)c1 | 0.0194 (≈ 61.9 µM) |
| Cc1nc(N/C(N)=N/S(=O)(=O)c2ccccc2)nc2ccccc12 | 0.0036 (≈ 10.5 µM) |
| CCN(C(=O)COC(=O)c1nccnc1N)c1cccc2ccccc12 | > 0.0526 |
